Consider one molecule from patent US6924296B2, “Antithrombotic agents” (Eli Lilly and Company, priority 2000, dated 2005).

The experiment has as its target human factor Xa (Homo sapiens, UniProt P00742). As to the kind of experiment: Factor Xa chromogenic substrate inhibitor binding affinity assay (apparent Kass). To be noted: 1.34 nM human factor Xa, 0.18 mM BzIle-Glu-Gly-Arg-pNA; mean value; read-out: Kass (apparent association constant) (converted). On the procedure: The inhibition by a compound of the inhibition of a serine protease of the human blood coagulation system or of the fibrinolytic system, as well as of trypsin, is determined in vitro for the particular enzyme by measuring its inhibitor binding affinity in an assay in which the enzyme hydrolyzes a particular chromogenic substrate, for example as described in Smith, G. F.; Gifford-Moore, D.; Craft, T. J.; Chirgadze, N.; Ruterbories, K. J.; Lindstrom, T. D.; Satterwhite, J. H. Efegatran: A New Cardiovascular Anticoagulant. New Anticoagulants for the Cardiovascular Patient; Pifarre, R., Ed.; Hanley & Belfus, Inc.: Philadelphia, 1997; pp. 265-300. The inhibitor binding affinity is measured as apparent association constant Kass which is the hypothetical equilibrium constant for the reaction between enzyme and the test inhibitor compound (I).
Enzyme+I⇄Enzyme−I [formula]
Conveniently, enzyme inhibition kinetics are performed in 96-well polystyrene plates and reaction rates are determined from the rate of hydrolysis of appropriate p-nitroanilide substrates at 405 nm using a Thermomax plate reader from Molecular Devices (San Francisco, Calif.). […] The rates of chromogenic substrate hydrolysis reactions provide a linear relationship with the enzymes studied such that free enzyme can be quantitated in reaction mixtures. […]

Structures can show the parent of a compound that is named as a salt.

Sequence of human factor Xa (P00742 235-488 limits assumed): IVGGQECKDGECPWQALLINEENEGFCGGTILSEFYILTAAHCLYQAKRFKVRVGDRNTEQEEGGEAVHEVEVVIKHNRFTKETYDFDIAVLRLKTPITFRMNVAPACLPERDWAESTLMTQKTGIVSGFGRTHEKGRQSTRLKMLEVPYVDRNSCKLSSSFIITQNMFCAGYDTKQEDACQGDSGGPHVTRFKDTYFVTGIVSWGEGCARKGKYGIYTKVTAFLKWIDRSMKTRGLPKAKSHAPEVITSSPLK
Sequence of human factor Xa (P00742 41-179 partner limits assumed): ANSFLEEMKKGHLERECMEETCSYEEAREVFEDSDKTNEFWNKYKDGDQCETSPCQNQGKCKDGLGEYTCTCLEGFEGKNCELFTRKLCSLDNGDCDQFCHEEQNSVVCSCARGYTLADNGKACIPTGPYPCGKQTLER

As to `O=C(NC1CCN(C(=O)C2CCN(c3ccncc3)CC2)C1)c1ccc2cc[nH]c2c1` (stereo not shown) [Example 1, 3-[(6-Indolyl)carbonyl]amino-1-[[1-(4-pyridinyl)piperidin-4-yl]carbonyl]pyrrolidine Hydrochloride Salt], the Kd was 472 nM.
